Data from patent US20230271770A1, “Anti-Viral Pharmaceutical Formulations Administered Via Devices for Lung Targeted Delivery” (priority 2020, published 2023).
Read-outs that look alike come from different tables or passages of the source.

What was measured:
SARS-CoV-2 [1] = conditions: Reference [4]; read-out: EC 50, for SARS-Cov2, Treatment 48 hrs; cited from earlier work
SARS-CoV-2 [2] = conditions: Reference [3]; read-out: EC 50, for SARS-Cov2, Treatment 24 hrs; cited from earlier work
SARS-CoV-2 [3] = conditions: Reference [3], cited from earlier work
[4] = In-line Cascade Impactor (Andersen) evaluation, MDI actuator through elbow connection and ventilator tubing; format: physicochemical; parameters: Delivered <1.1 mcm / Delivered <4.7 mcm: unit not given here; conditions: Alveoli, in-Line Tube (55 cm), HCQB-e, connection w/inner channel, Ave, 5% EtOH, 200 mcg
Method: An example of a ventilator device, for example ventilator device 1700A, was tested and compared to a self-administrable, handheld MDI to determine the target site delivery efficiency in the ventilator circuit as compared to the MDI delivery efficiency without the ventilator circuit (e.g. no elbow connector or ventilator tubing).
Prime HCQ valve by discharging a predetermined number of actuations to waste. Discharge 10 actuations with actuator H004B-a into the cascade impaction sampling apparatus through an elbow connection w/inner channel and an in-line tubing (55 cm long).
Prime HCQ valve by discharging a predetermined number of actuations to waste. Discharge 10 actuations with actuator H004B-c into the cascade impaction sampling apparatus through an elbow connection with an inner channel and an in-line tubing (55 cm long).
Prime HCQ valve by discharging a predetermined number of actuations to waste. […]

| SMILES | EC50 (SARS-CoV-2 [1]) | EC50 (SARS-CoV-2 [2]) | EC50 (SARS-CoV-2 [3]; read-out: EC 50, for SARS-Cov2, Prophylactic Treatment 24 hrs) | EC50 (SARS-CoV-2 [3]; read-out: EC 50, for SARS-Cov2, Prophylactic Treatment 48 hrs) | Delivery Rate ([4]; <1.1 mcm) | Delivered <1.1 mcm [4] |
| --- | --- | --- | --- | --- | --- | --- |
| CCN(CC)CCCC(C)Nc1ccnc2cc(Cl)ccc12 (stereo not shown) [CQ, chloroquine] | 1.13 µM | 23.9 µM | > 100 µM | 18 µM |  |  |
| CCN(CCO)CCCC(C)Nc1ccnc2cc(Cl)ccc12 (stereo not shown) [HICQ Base] |  |  |  |  | 33.0% | 66.0 |
| NC(=O)c1ncn([C@@H]2O[C@H](CO)[C@@H](O)[C@H]2O)n1 [Ribavirin] | 106 µM |  |  |  |  |  |
